# Experimental data as given in patent publication US8492589B2, “Alkynyl phenyl derivative compounds for treating ophthalmic diseases and disorders” (Acucela Inc., priority 2007, dated 2013).
# Biological target: T1, visual cycle isomerase (Bovine RPE microsome membranes) (Bos taurus, UniProt Q28175)
# T1 construct: Bovine Retinal Pigment Epithelium (RPE) microsome membranes were the source of a visual cycle isomerase; from tissue; host or cells: bovine retinal pigment epithelium microsome membranes
# T1 sequence (Q28175 2-533 limits assumed): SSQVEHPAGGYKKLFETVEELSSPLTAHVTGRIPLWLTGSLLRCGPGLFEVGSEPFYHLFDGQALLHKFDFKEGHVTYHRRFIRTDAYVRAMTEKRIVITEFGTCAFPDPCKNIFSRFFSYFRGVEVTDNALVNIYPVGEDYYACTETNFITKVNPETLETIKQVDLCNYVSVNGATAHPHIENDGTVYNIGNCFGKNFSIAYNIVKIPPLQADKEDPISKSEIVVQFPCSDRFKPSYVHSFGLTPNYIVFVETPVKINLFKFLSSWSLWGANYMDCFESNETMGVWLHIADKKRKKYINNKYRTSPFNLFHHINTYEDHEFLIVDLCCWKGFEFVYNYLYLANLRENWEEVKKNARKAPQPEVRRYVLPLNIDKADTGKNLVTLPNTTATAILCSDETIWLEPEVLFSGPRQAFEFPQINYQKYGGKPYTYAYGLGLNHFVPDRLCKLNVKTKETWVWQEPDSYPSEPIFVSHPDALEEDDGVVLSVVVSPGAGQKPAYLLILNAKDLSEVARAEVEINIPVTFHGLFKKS
# Assay: In vitro isomerase inhibition assay, bovine RPE microsome membranes
# Format: biochemical
# Settings: bovine RPE microsomes; 11-cis retinol formation
# Method: The capability of alkynyl phenyl-linked amine derivative compounds to inhibit the activity of a visual cycle isomerase was determined.
# Bovine Retinal Pigment Epithelium (RPE) microsome membranes were the source of a visual cycle isomerase.
# Crude RPE microsome extracts were thawed in a 37° C. water bath, and then immediately placed on ice. 50 ml crude RPE microsomes were placed into a 50 ml Teflon-glass homogenizer (Fisher Scientific, catalog no. 0841416M) on ice, powered by a hand-held DeWalt drill, and homogenized ten times up and down on ice under maximum speed. This process was repeated until the crude RPE microsome solution was homogenized. The homogenate was then subjected to centrifugation (50.2 Ti rotor (Beckman, Fullerton, Calif.), 13,000 RPM; 15360 Rcf) for 15 minutes at 4° C. The supernatant was collected and subjected to centrifugation at 42,000 RPM (160,000 Rcf; 50.2 Ti rotor) for 1 hour at 4° C. The supernatant was removed, and the pellets were suspended in 12 ml (final volume) cold 10 mM MOPS buffer, pH 7.0. The resuspended RPE membranes in 5 ml aliquots were homogenized in a glass-to-glass homogenizer (Fisher Scientific, catalog no. K885500-0021) to high homogeneity. Protein concentration was quantified using the BCA protein assay according to the manufacturer's protocol (Pierce, Rockford, Ill.). The homogenized RPE preparations were stored at −80° C.
# Recombinant human apo cellular retinaldehyde-binding protein (CRALBP) was cloned and expressed according to standard methods in the molecular biology art (see Crabb et al., Protein Science 7:746-57 (1998); Crabb et al., J. Biol. Chem. 263:18688-92 (1988)). Briefly, total RNA was prepared from confluent ARPE19 cells (American Type Culture Collection, Manassas, Va.), cDNA was synthesized using an oligo(dT)12-18 primer, and then DNA encoding CRALBP was amplified by two sequential polymerase chain reactions (see Crabb et al., J. Biol. Chem. 263:18688-92 (1988); Intres, et al., J. Biol. Chem. 269:25411-18 (1994); GenBank Accession No. L34219.1). The PCR product was sub-cloned into pTrcHis2-TOPO TA vector according to the manufacturer's protocol (Invitrogen Inc., Carlsbad, Calif.; catalog no. K4400-01), and then the sequence was confirmed according to standard nucleotide sequencing techniques. Recombinant 6×His-tagged human CRALBP was expressed in One Shot TOP 10 chemically competent E. coli cells (Invitrogen), and the recombinant polypeptide was isolated from E. coli cell lysates by nickel affinity chromatography using nickel (Ni) Sepharose XK16-20 columns for HPLC (Amersham Bioscience, Pittsburgh, Pa.; catalog no. 17-5268-02). The purified 6×His-tagged human CRALBP was dialyzed against 10 mM bis-tris-Propane (BTP) and analyzed by SDS-PAGE. The molecular weight of the recombinant human CRALBP was approximately 39 kDal.
# Alkkynyl phenyl-linked amine derivative compounds and control compounds were reconstituted in ethanol to 0.1 M. Ten-fold serial dilutions (10^−2, 10^−3, 10^−4, 10^−5, 10^−6 M) in ethanol of each compound were prepared for analysis in the isomerase assay.
# The isomerase assay was performed in 10 mM bis-tris-propane (BTP) buffer, pH 7.5, 0.5% BSA (diluted in BTP buffer), 1 mM sodium pyrophosphate, 20 μM all-trans retinol (in ethanol), and 6 μM apo-CRALBP. The test compounds (2 μl) (final […] dilution of serial dilution stocks) were added to the above reaction mixture to which RPE microsomes were added. The same volume of ethanol was added to the control reaction (absence of test compound). Bovine RPE microsomes (9 μl) (see above) were then added, and the mixtures transferred to 37° C. to initiate the reaction (total volume=150 μl). The reactions were stopped after 30 minutes by adding methanol (300 μl). Heptane was added (300 μl) and mixed into the reaction mixture by pipetting. Retinoid was extracted by agitating the reaction mixtures, followed by centrifugation in a microcentrifuge. […]
row,SMILES,IC50 [µM]
1,"CCCCC(O)(C#Cc1cccc(CCCN)c1)CCCC [Example 3, 5-((3-(3-Aminopropyl)phenyl)ethynyl)nonan-5-ol]",≤ 1
2,"CCCC(C)(O)C#Cc1cccc(CCCN)c1 (centres unmarked) [Example 5, 1-(3-(3-Aminopropyl)phenyl)-3-methylhex-1-yn-3-ol]",≤ 1
3,"CC(C)CC(C)(O)C#Cc1cccc(CCCN)c1 (centres unmarked) [Example 6, 1-(3-(3-Aminopropyl)phenyl)-3,5-dimethylhex-1-yn-3-ol]",≤ 1
4,"COCC#Cc1cccc(CCCN)c1 [Example 9, 3-(3-(3-Methoxyprop-1-ynyl)phenyl)propan-1-amine]",≤ 10
5,"NCCCc1cccc(C#CCO)c1 [Example 10, 3-(3-(3-Aminopropyl)phenyl)prop-2-yn-1-ol]",≤ 100
6,"CC(C)(C)C(O)(C#Cc1cccc(CCCN)c1)C(C)(C)C [Example 12, 1-(3-(3-Aminopropyl)phenyl)-3-tert-butyl-4,4-dimethylpent-1-yn-3-ol]",≤ 10
7,"CC1(C)CCCC(C)(C)C1(O)C#Cc1cccc(CCCN)c1 [Example 13, 1-((3-(3-Aminopropyl)phenyl)ethynyl)-2,2,6,6-tetramethylcyclohexanol]",≤ 10
8,"CCCCC[C@H](O)C#Cc1cccc(CCCN)c1 [Example 14, (S)-1-(3-(3-Aminopropyl)phenyl)oct-1-yn-3-ol]",≤ 10
9,"CCCCC[C@@H](O)C#Cc1cccc(CCCN)c1 [Example 15, (R)-1-(3-(3-Aminopropyl)phenyl)oct-1-yn-3-ol]",≤ 1
10,"NCCCc1cccc(C#C[C@H](O)c2ccccc2)c1 [Example 16, (R)-3-(3-(3-Aminopropyl)phenyl)-1-phenylprop-2-ynol]",≤ 1
11,"Cc1cccc(C)c1C#Cc1cccc(CCCN)c1 [Example 17, 3-(3-((2,6-dimethylphenyl)ethynyl)phenyl)propan-1-amine]",≤ 10
12,"CCCC(O)(C#Cc1cccc(CC(C)(C)CN)c1)CCC [Example 20, 4-((3-(3-Amino-2,2-dimethylpropyl)phenyl)ethynyl)heptan-4-ol]",≤ 100
13,"CC(C)C(C)(O)C#Cc1cccc(CCCN)c1 (centres unmarked) [Example 21, 1-(3-(3-Aminopropyl)phenyl)-3,4-dimethylpent-1-yn-3-ol]",≤ 1
14,"CC(O)(C#Cc1cccc(CCCN)c1)c1ccccc1 (centres unmarked) [Example 22, 4-(3-(3-Aminopropyl)Phenyl)-2-Phenylbut-3-Yn-2-ol]",≤ 1
15,"CC(C)C(O)C#Cc1cccc(CCCN)c1 (centres unmarked) [Example 23, 1-(3-(3-Aminopropyl)phenyl)-4-methylpent-1-yn-3-ol]",≤ 1
16,"CCCCC(O)(C#Cc1cccc(OCCN)c1)CCCC [Example 29, 5-((3-(2-Aminoethoxy)phenyl)ethynyl)nonan-5-ol]",≤ 1
17,"CC(C)(O)C#Cc1cccc(OCCN)c1 [Example 30, 4-(3-(2-Aminoethoxy)phenyl)-2-methylbut-3-yn-2-ol]",≤ 1
18,"CC(C)CC(O)(C#Cc1cccc(CCCN)c1)CC(C)C [Example 33, 4-((3-(3-Aminopropyl)phenyl)ethynyl)-2,6-dimethylheptan-4-ol]",≤ 10
19,"NCCCc1cccc(C#CCCO)c1 [Example 34, 4-(3-(3-Aminopropyl)Phenyl)But-3-Yn-1-ol]",≤ 100
20,"CC(O)CC#Cc1cccc(CCCN)c1 (centres unmarked) [Example 35, 5-(3-(3-Aminopropyl)phenyl)pent-4-yn-2-ol]",≤ 10
21,"NCCCc1cccc(C#CCC2CCCC2)c1 [Example 39, 3-(3-(3-Cyclopentylprop-1-ynyl)phenyl)propan-1-amine]",≤ 1

row,SMILES,IC50 [µM]
1,"CC(C)(C)C#Cc1cccc(CCCN)c1 [Example 40, 3-(3-(3,3-Dimethylbut-1-Ynyl)Phenyl)Propan-1-Amine]",≤ 10
2,"NCCCc1cccc(C#CC2CCCCC2)c1 [Example 41, 3-(3-(Cyclohexylethynyl)phenyl)propan-1-amine]",≤ 1
3,"NCCCc1cccc(C#CCc2ccccc2)c1 [Example 42, 3-(3-(3-Phenylprop-1-ynyl)phenyl)propan-1-amine]",≤ 1
4,"CCCC#Cc1cccc(CCCN)c1 [Example 43, 3-(3-(Pent-1-ynyl)phenyl)propan-1-amine]",≤ 1
5,"CCCCC#Cc1cccc(CCCN)c1 [Example 44, 3-(3-(Hex-1-ynyl)phenyl)propan-1-amine]",≤ 1
6,"NCCCc1cccc(C#Cc2ccc3ccccc3c2)c1 [Example 45, 3-(3-(Naphthalen-2-ylethynyl)phenyl)propan-1-amine]",≤ 1000
7,"NCCCc1cccc(C#Cc2cccc(-c3ccccc3)c2)c1 [Example 46, 3-(3-(Biphenyl-3-ylethynyl)phenyl)propan-1-amine]",≤ 100
8,"NCCC(O)c1cccc(C#CCC2CCCC2)c1 (centres unmarked) [Example 48, 3-Amino-1-(3-(3-cyclopentylprop-1-ynyl)phenyl)propan-1-ol]",≤ 1
9,"NCCC(O)c1cccc(C#CCc2ccccc2)c1 (centres unmarked) [Example 49, 3-Amino-1-(3-(3-phenylprop-1-ynyl)phenyl)propan-1-ol]",≤ 1
10,"CCCCCC#Cc1cccc(C(O)CCN)c1 (centres unmarked) [Example 53, 3-Amino-1-(3-(hept-1-ynyl)phenyl)propan-1-ol]",≤ 1
11,"NCCOc1cccc(C#CC2(O)CCOCC2)c1 [Example 56, 4-((3-(2-Aminoethoxy)phenyl)ethynyl)tetrahydro-2H-pyran-4-ol]",≤ 10
12,"NCCCc1cccc(C#CC2(O)CCCCCC2)c1 [Example 58, 1-((3-(3-Aminopropyl)phenyl)ethynyl)cycloheptanol]",≤ 1
13,"NCCCc1cccc(C#Cc2cccnc2)c1 [Example 64, 3-(3-(Pyridin-3-ylethynyl)phenyl)propan-1-amine]",≤ 10
14,"NCCCc1cccc(C#Cc2cccs2)c1 [Example 65, 3-(3-(Thiophen-2-ylethynyl)phenyl)propan-1-amine]",≤ 10
15,"NCCCc1cccc(C#Cc2ccsc2)c1 [Example 66, 3-(3-(Thiophen-3-ylethynyl)phenyl)propan-1-amine]",≤ 10
16,"COCCCCC#Cc1cccc(CCCN)c1 [Example 67, 3-(3-(6-Methoxyhex-1-ynyl)phenyl)propan-1-amine]",≤ 1
17,"NCCCc1cccc(C#CCCCCO)c1 [Example 68, 6-(3-(3-Aminopropyl)phenyl)hex-5-yn-1-ol]",≤ 1
18,"COCCCC#Cc1cccc(CCCN)c1 [Example 70, 3-(3-(5-Methoxypent-1-ynyl)phenyl)propan-1-amine]",≤ 1
19,"NCCCc1cccc(C#CCCc2ccccc2)c1 [Example 72, 3-(3-(4-Phenylbut-1-ynyl)phenyl)propan-1-amine]",≤ 1
20,"CC(C)CC#Cc1cccc(OCCN)c1 [Example 73, 2-(3-(4-Methylpent-1-ynyl)phenoxy)ethanamine]",≤ 1
